Counter-ions that a name gives are not always drawn. Like-named read-outs stand apart in the source and are kept apart here.
Target: hNav1.7 (Homo sapiens (Human), UniProt Q15858)
Experiment: Tritiated sulfonamide competitive binding to membranes from cells expressing hNav1.7 and the β1 subunit;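 also: Filter-bound radioactivity counted by liquid scintillation, nonspecific binding defined with excess unlabelled ligand, IC50 fitted to percent inhibition of specific binding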
[1] = read-out: Ligand Binding Assay, 100 pM [3H]compound, membranes with hNav1.7 and β1 subunit, 18 h, room temperature

Sequence of hNav1.7 (Q15858 other isoform, or with tags, fused parts or gaps): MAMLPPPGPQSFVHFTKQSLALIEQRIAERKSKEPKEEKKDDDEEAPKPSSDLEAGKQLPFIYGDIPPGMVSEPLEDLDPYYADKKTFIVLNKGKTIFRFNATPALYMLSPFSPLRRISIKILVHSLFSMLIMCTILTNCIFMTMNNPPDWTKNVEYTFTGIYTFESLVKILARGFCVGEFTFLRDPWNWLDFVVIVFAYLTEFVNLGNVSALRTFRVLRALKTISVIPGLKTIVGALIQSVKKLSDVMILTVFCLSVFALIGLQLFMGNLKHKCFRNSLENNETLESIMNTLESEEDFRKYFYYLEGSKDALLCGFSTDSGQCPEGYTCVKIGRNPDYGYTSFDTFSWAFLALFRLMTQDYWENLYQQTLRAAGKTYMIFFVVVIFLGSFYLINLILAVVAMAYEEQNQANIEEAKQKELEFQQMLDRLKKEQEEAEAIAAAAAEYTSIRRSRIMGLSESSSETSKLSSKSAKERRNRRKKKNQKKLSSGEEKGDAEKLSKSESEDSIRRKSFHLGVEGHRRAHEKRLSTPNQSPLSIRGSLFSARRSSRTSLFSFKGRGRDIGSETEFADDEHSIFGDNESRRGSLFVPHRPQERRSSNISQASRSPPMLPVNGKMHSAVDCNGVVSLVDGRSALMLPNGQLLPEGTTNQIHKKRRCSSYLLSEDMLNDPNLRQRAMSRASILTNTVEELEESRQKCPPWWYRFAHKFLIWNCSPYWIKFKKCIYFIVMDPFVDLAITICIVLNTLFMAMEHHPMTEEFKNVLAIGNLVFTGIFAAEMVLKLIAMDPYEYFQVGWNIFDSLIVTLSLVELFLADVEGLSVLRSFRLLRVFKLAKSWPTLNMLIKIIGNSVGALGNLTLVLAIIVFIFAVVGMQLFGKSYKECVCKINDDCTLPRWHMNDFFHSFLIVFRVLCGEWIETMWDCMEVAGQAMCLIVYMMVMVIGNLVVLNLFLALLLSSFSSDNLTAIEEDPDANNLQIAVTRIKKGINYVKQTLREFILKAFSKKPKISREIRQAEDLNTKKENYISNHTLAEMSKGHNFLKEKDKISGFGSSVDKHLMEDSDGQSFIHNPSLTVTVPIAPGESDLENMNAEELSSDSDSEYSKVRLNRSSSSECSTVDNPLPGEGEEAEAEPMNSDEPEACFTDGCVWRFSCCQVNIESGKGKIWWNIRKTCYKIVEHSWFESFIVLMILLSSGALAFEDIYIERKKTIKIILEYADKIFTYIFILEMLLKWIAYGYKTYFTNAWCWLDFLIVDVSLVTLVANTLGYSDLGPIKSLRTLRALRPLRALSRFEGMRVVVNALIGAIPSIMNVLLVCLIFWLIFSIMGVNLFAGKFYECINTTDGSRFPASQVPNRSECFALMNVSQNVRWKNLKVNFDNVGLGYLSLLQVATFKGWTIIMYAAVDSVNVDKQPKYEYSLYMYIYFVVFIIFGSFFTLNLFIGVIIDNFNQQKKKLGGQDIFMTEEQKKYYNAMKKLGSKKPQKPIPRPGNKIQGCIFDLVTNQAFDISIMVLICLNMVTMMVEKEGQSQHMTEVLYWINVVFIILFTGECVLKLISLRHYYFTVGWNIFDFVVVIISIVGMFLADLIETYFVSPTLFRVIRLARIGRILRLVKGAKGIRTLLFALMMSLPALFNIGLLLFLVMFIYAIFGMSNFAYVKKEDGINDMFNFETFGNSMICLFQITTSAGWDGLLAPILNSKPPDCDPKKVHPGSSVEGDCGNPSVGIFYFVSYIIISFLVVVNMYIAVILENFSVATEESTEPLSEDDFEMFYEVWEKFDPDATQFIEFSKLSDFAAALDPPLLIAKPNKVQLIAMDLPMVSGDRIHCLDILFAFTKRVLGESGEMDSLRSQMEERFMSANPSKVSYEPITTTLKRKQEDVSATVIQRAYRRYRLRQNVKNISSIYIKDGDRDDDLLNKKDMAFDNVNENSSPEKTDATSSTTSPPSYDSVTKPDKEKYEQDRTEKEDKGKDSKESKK
Sequence of hNav1.7 (Q07699 19-218 partner): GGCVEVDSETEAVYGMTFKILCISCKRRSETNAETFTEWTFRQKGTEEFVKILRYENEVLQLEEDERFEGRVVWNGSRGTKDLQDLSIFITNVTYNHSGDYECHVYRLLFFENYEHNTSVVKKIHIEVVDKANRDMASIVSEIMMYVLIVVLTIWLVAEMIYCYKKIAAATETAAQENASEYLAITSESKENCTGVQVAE

IC50 [1] | IC50 | SMILES
9.2 nM |  | COC[C@@H](c1ccc(Cl)c(Cl)c1)N1CCC(COc2cc(F)c(C(=O)NS(C)(=O)=O)cc2C2CC2)CC1 (single isomer, unassigned) [Example 264]
49.2 nM |  | CS(=O)(=O)NC(=O)c1cc(C2CC2)c(OCC2CCN(S(=O)(=O)c3ccc(C(F)(F)F)cc3)CC2)cc1F [Example 372, 5-cyclopropyl-2-fluoro-N-(methylsulfonyl)-4-((1-((4-(trifluoromethyl)phenyl)sulfonyl)piperidin-4-yl)methoxy)benzamide]
15 nM |  | CC(c1cccc(Cl)c1)N1CCC(COc2cc(F)c(C(=O)NS(C)(=O)=O)cc2C2CC2)CC1 (centres unmarked) [Example 148, 4-((1-(1-(3-Chlorophenyl)ethyl)piperidin-4-yl)methoxy)-5-cyclopropyl-2-fluoro-N-(methylsulfonyl)benzamide]
2.3 nM |  | C[C@@H](c1ccc(F)cc1Cl)N1CCC[C@@H](Oc2cc(F)c(C(=O)NS(C)(=O)=O)cc2C2CC2)C1 [Example 295, 4-(((R)-1-((S)-1-(2-chloro-4-fluorophenyl)ethyl)piperidin-3-yl)oxy)-5-cyclopropyl-2-fluoro-N-(methylsulfonyl)benzamide]
2.9 nM |  | CS(=O)(=O)NC(=O)c1cc(C2CC2)c(OCC2CCN(C(c3ccc(Cl)cc3)c3ccc(Cl)cc3)CC2)cc1F [Example 362, 4-((1-(bis(4-chlorophenyl)methyl)piperidin-4-yl)methoxy)-5-cyclopropyl-2-fluoro-N-(methylsulfonyl)benzamide, trifluoroacetic acid salt]
11.3 nM |  | O=C(NS(=O)(=O)N1CCC1)c1cc(C2CC2)c(CN2CCO[C@H](Cc3ccc(F)cc3Cl)C2)cc1F [Example 468, (R)-N-(azetidin-1-ylsulfonyl)-4-((2-(2-chloro-4-fluorobenzyl)morpholino)methyl)-5-cyclopropyl-2-fluorobenzamide, trifluoroacetic acid salt]
1.5 nM |  | CS(=O)(=O)NC(=O)c1cc(C2CC2)c(OCC2CCN(C(c3ccccc3)c3cc(Cl)cc(Cl)c3)CC2)cc1F (centres unmarked) [Example 412, 5-cyclopropyl-4-((1-((3,5-dichlorophenyl)(phenyl)methyl)piperidin-4-yl)methoxy)-2-fluoro-N-(methylsulfonyl)benzamide, trifluoroacetic acid salt]
12.8 nM |  | Cc1cc(C(=O)NS(C)(=O)=O)c(F)cc1OCC1CCN([C@@H](C)c2cc(Cl)cc(Cl)c2)CC1 [Example 360, (S)-4-((1-(1-(3,5-dichloro)ethyl)piperidin-4-yl)methoxy)-2-fluoro-5-methyl-N-(methylsulfonyl)benzamide, trifluoroacetic acid]
2.6 nM |  | CS(=O)(=O)NC(=O)c1cc(C2CC2)c(O[C@@H]2CCCN(Cc3cc(F)ccc3C(F)(F)F)C2)cc1F [Example 318, (R)-5-cyclopropyl-2-fluoro-4-((1-(5-fluoro-2-(trifluoromethyl)benzyl)piperidin-3-yl)oxy)-N-(methylsulfonyl)benzamide]
170 nM |  | CS(=O)(=O)NC(=O)c1cc(C2CC2)c(OC[C@@H]2CCN(Cc3cc(Cl)cc(Cl)c3)C(=O)C2)cc1F (single isomer, unassigned) [Example 234]
 | 2.7 nM | C[C@H](c1cc(Cl)cc(Cl)c1)N1CCN(Cc2cc(F)c(C(=O)NS(=O)(=O)C3CC3)cc2C2CC2)C[C@@H]1C [Example 566, 5-cyclopropyl-N-(cyclopropylsulfonyl)-4-(((S)-4-((R)-1-(3,5-dichlorophenyl)ethyl)-3-methylpiperazin-1-yl)methyl)-2-fluorobenzamide]
 | 8.1 nM | O=C(NS(=O)(=O)N1CCC1)c1cc(C2CC2)c(O[C@@H]2CCCN(Cc3ccc(F)cc3F)C2)cc1F [Example 8, (R)—N-(azetidin-1-ylsulfonyl)-5-cyclopropyl-4-((1-(2,4-difluorobenzyl)-piperidin-3-yl)oxy)-2-fluorobenzamide]
55.3 nM |  | O=C(NS(=O)(=O)N1CCC1)c1cc(C2CC2)c(CN2CCC(OCc3ccc(F)cc3Cl)CC2)cc1F [Example 479, N-(azetidin-1-ylsulfonyl)-4-((4-((2-chloro-4-fluorobenzyl)oxy)piperidin-1-yl)methyl)-5-cyclopropyl-2-fluorobenzamide, trifluoroacetic acid salt]
1100 nM |  | CS(=O)(=O)NC(=O)c1cc(C2CC2)c(OCC2CCN(C(=O)c3ccccc3C(F)(F)F)CC2)cc1F [Example 255]
11 nM |  | C[C@@H](c1ccc(F)cc1Cl)N1CCC(COc2cc(F)c(C(=O)NS(C)(=O)=O)cc2C2CC2)CC1 [Example 243]
12 nM |  | C[C@H](c1ccc(F)cc1Cl)N1CCC(COc2cc(F)c(C(=O)NS(C)(=O)=O)cc2C2CC2)CC1 [Example 244]
533 nM |  | COc1ccc(CN2CCC[C@@H](Oc3cc(F)c(C(=O)NS(C)(=O)=O)cc3C3CC3)C2)cc1OC [Example 430, (R)-5-cyclopropyl-4-((1-(3,4-dimethoxybenzyl)piperidin-3-yl)oxy)-2-fluoro-N-(methylsulfonyl)benzamide, trifluoroacetic acid salt]
4.5 nM |  | CC1(COc2cc(F)c(C(=O)NS(C)(=O)=O)cc2C2CC2)CCN(Cc2ccc(Cl)c(Cl)c2)CC1 [Example 575, 5-cyclopropyl-4-((1-(3,4-dichlorobenzyl)-4-methylpiperidin-4-yl)methoxy)-2-fluoro-N-(methylsulfonyl)benzamide]
213 nM |  | CS(=O)(=O)NC(=O)c1cc(C2CC2)c(OC2CC3(C2)CN(Cc2ccc(F)cc2Cl)C3)cc1F [Example 320, 4-((2-(2-chloro-4-fluorobenzyl)-2-azaspiro[3.3]heptan-6-yl)oxy)-5-cyclopropyl-2-fluoro-N-(methylsulfonyl)benzamide, trifluoroacetic acid salt]
9.3 nM |  | CS(=O)(=O)NC(=O)c1cc(C2CC2)c(OCC2CCN(Cc3cc(F)c(F)c(Cl)c3)CC2)cc1F [Example 456, 4-((1-(3-chloro-4,5-difluorobenzyl)piperidin-4-yl)methoxy)-5-cyclopropyl-2-fluoro-N-(methylsulfonyl)benzamide, trifluoroacetic acid salt]
1370 nM |  | CS(=O)(=O)NC(=O)c1cc(C2CC2)c(OCC2CN(S(=O)(=O)c3ccccc3)C2)cc1F [Example 129, 5-Cyclopropyl-2-fluoro-N-(methylsulfonyl)-4-((1-(phenylsulfonyl)-azetidin-3-yl)methoxy)benzamide]
 | 318 nM | CS(=O)(=O)NC(=O)c1cc(C2CC2)c(O[C@@H]2CCCN(Cc3cccc4c3CNC4)C2)cc1F [Example 14, (R)-5-cyclopropyl-2-fluoro-4-((1-(isoindolin-4-ylmethyl)piperidin-3-yl)oxy)-N-(methylsulfonyl)benzamide]
191 nM |  | O=C(NS(=O)(=O)N1CC(F)C1)c1cc(C2CC2)c(OC2CC3(C2)CN(Cc2ccc(F)cc2Cl)C3)cc1F [Example 321, 4-((2-(2-chloro-4-fluorobenzyl)-2-azaspiro[3.3]heptan-6-yl)oxy)-5-cyclopropyl-2-fluoro-N-((3-fluoroazetidin-1-yl)sulfonyl)benzamide]
3.5 nM |  | CS(=O)(=O)NC(=O)c1cc(C2CC2)c(OCC2CCN(Cc3ccc(Br)cc3C(F)(F)F)CC2)cc1F [Example 585, 4-((1-(4-bromo-2-(trifluoromethyl)benzyl)piperidin-4-yl)methoxy)-5-cyclopropyl-2-fluoro-N-(methylsulfonyl)benzamide]
2450 nM |  | CS(=O)(=O)NC(=O)c1cc(C2CC2)c(OCC2CCN(S(=O)(=O)C3CCOCC3)CC2)cc1F [Example 376, 5-cyclopropyl-2-fluoro-N-(methylsulfonyl)-4-((1-((tetrahydro-2H-pyran-4-yl)sulfonyl)piperidin-4-yl)methoxy)benzamide]
6.2 nM |  | CS(=O)(=O)NC(=O)c1cc(C2CC2)c(O[C@@H]2CCCN(Cc3ccc(C(F)(F)F)c(Cl)c3)C2)cc1F [Example 433, (R)-4-((1-(3-chloro-4-(trifluoromethyl)benzyl)piperidin-3-yl)oxy)-5-cyclopropyl-2-fluoro-N-(methylsulfonyl)benzamide, trifluoroacetic acid salt]
2.9 nM |  | CS(=O)(=O)NC(=O)c1cc(C2CC2)c(OCC2CCN(Cc3ccc(Cl)cc3C(F)(F)F)CC2)cc1F [Example 579, 4-((1-(4-chloro-2-(trifluoromethyl)benzyl)piperidin-4-yl)methoxy)-5-cyclopropyl-2-fluoro-N-(methylsulfonyl)benzamide]
2.54 nM |  | CC(c1cc(Cl)cc(Cl)c1)N1CCC(COc2cc(F)c(C(=O)NS(=O)(=O)C3CC3)cc2C2CC2)CC1 (centres unmarked) [Example 102, 5-Cyclopropyl-N-(cyclopropylsulfonyl)-4-((1-(1-(3,5-dichlorophenyl)-ethyl)piperidin-4-yl)methoxy)-2-fluorobenzamide]

SMILES | IC50 [1] | IC50
CS(=O)(=O)NC(=O)c1cc(C2CC2)c(OCC2(C#N)CCN(Cc3cc(C(F)(F)F)cc(Cl)c3F)CC2)cc1F [Example 595, 4-((1-(3-chloro-2-fluoro-5-(trifluoromethyl)benzyl)-4-cyanopiperidin-4-yl)methoxy)-5-cyclopropyl-2-fluoro-N-(methylsulfonyl)benzamide] | 34.3 nM | 
CS(=O)(=O)NC(=O)c1cc(C2CC2)c(CN2CCC(CF)(c3ccc(F)cc3)CC2)cc1F [Example 513, 5-cyclopropyl-2-fluoro-4-((4-(fluoromethyl)-4-(4-fluorophenyl)piperidin-1-yl)methyl)-N-(methylsulfonyl)benzamide, trifluoroacetic acid salt] |  | 69.8 nM
O=C(NS(=O)(=O)C1CC1)c1cc(C2CC2)c(CN2C[C@@H]3C[C@H]2CN3S(=O)(=O)c2cc(Cl)cc(Cl)c2)cc1F [Example 559, 5-cyclopropyl-N-(cyclopropylsulfonyl)-4-(((1S,4S)-5-((3,5-dichlorophenyl)sulfonyl)-2,5-diazabicyclo[2.2.1]heptan-2-yl)methyl)-2-fluorobenzamide, trifluoroacetic acid salt] |  | 18.9 nM
CS(=O)(=O)NC(=O)c1cc(C2CC2)c(CN2[C@@H]3CC[C@H]2C[C@@H](Oc2cc(C(F)(F)F)c(Cl)cn2)C3)cc1F [Example 550, 4-(((1R,3r,5S)-3-((5-chloro-4-(trifluoromethyl)pyridin-2-yl)oxy)-8-azabicyclo[3.2.1]octan-8-yl)methyl)-5-cyclopropyl-2-fluoro-N-(methylsulfonyl)benzamide, trifluoroacetic acid salt] | 13.6 nM | 
